Reference: the supplement of paper PMC11061612

Columns and labels:
[1] = test system: COR-L88 (Small Cell Lung Carcinoma); test: Bliss excess, mean over the matrix (fraction); higher = more synergy
Method in brief: (§1)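 Cell lines grown in DMEM/F12 or RPMI with 10% FBS were plated in 1536-well plates and held 24 hours at 37°C, 5% CO2 before 72 hours of exposure to two-drug dose matrices, with DMSO typically at 0.2%. CellTiter-Glo 2.0 luminescence gave viability, which was converted to inhibition. Vehicle wells were set to 0 and blank wells to 1. Combination Emax is the second-highest inhibition in the matrix, and Bliss excess is the observed combination effect minus the expected EA + EB − EA·EB, where EA and EB are the single-agent effects.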

GAK (Melanoma) = test: as above
Method in brief: as §1

[2] = test system: HT-1080 (Other Solid Carcinomas); test: as above
Method in brief: as §1

[3] = test system: IA-LM (Non-Small Cell Lung Carcinoma); test: as above
Method in brief: as §1

IST-MEL1 (Melanoma) = test: as above
Method in brief: as §1

[4] = test system: KP-4 (Pancreatic Carcinoma); test: as above
Method in brief: as §1

[5] = test system: MM1S (Plasma Cell Myeloma); test: as above
Method in brief: as §1

[6] = test system: MOLT-13 (T-Lymphoblastic Leukemia); test: as above
Method in brief: as §1

[7] = test system: MS-1 (Small Cell Lung Carcinoma); test: as above
Method in brief: as §1

NB1 (Neuroblastoma) = test: as above
Method in brief: as §1

[8] = test system: NCI-H1341 (Small Cell Lung Carcinoma); test: as above
Method in brief: as §1

[9] = test system: NMC-G1 (Low Grade Glioma); test: as above
Method in brief: as §1

[10] = test system: Raji (Burkitt's Lymphoma); test: as above
Method in brief: as §1

[11] = test system: SK-CO-1 (Colorectal Carcinoma); test: as above
Method in brief: as §1

[12] = test system: SNU-407 (Colorectal Carcinoma); test: as above
Method in brief: as §1

[13] = test system: SNU-423 (Hepatocellular Carcinoma); test: as above
Method in brief: as §1

UACC-257 (Melanoma) = test: as above
Method in brief: as §1

[14] = test system: BxPC-3 (Pancreatic Carcinoma); test: combination Emax (second highest fraction inhibited in the dose matrix, 72 h); higher = more inhibition; extreme values may be limits of the assay
Method in brief: as §1

[15] = test system: NCI-H1876 (Small Cell Lung Carcinoma); test: as above
Method in brief: as §1

[16] = test system: SNU-407 (Colorectal Carcinoma); test: as above
Method in brief: as §1
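Throughout, for Bliss excess, mean over the matrix: after 72 h of two-drug dosing.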

SMILES | Bliss excess [1] | Bliss excess (GAK (Melanoma)) | Bliss excess [2] | Bliss excess [3] | Bliss excess (IST-MEL1 (Melanoma)) | Bliss excess [4] | Bliss excess [5] | Bliss excess [6] | Bliss excess [7] | Bliss excess (NB1 (Neuroblastoma)) | Bliss excess [8] | Bliss excess [9] | Bliss excess [10] | Bliss excess [11] | Bliss excess [12] | Bliss excess [13] | Bliss excess (UACC-257 (Melanoma)) | combination Emax [14] | combination Emax [15] | combination Emax [16]
CC1(C)CCC(CN2CCN(c3ccc(C(=O)NS(=O)(=O)c4ccc(NCC5CCOCC5)c([N+](=O)[O-])c4)c(Oc4cnc5[nH]ccc5c4)c3)CC2)=C(c2ccc(Cl)cc2)C1 [Venetoclax] + C[C@@H](Nc1cc(F)cc(F)c1)c1cc(C(=O)N(C)C)cc2c(=O)cc(N3CCOCC3)oc12 [AZD8186] (first compound max 1 µM, 7x7, partner max 3 µM) | 0.0393 | -0.0325 | -0.0311 | -0.0416 | 0.0253 | -0.0205 | 0.0377 | 0.095 | 0.0357 | -0.047 | 0.0918 | -0.0256 | 0.0114 | -0.0782 | -0.0471 | 0.0364 | -0.0538 | 0.245 | 0.182 | 0.142
CC(=O)Nc1cccc(-n2c(=O)n(C3CC3)c(=O)c3c(Nc4ccc(I)cc4F)n(C)c(=O)c(C)c32)c1 [Trametinib] + Cc1nc(-c2cn3c(n2)-c2ccc(-c4cnn(C(C)(C)C(N)=O)c4)cc2OCC3)n(C(C)C)n1 [Taselisib] (first compound max 1 µM, 7x7, partner max 10 µM) | 0.0085 | 0.0805 | 0.0288 | 0.0972 | 0.122 | 0.0745 | 0.119 | 0.153 | 0.0912 | 0.156 | 0.183 | 0.0478 | 0.0075 | 0.0523 | 0.0236 | 0.0727 | 0.0443 | 1 | 0.796 | 0.905
Cc1c2c(nn1C)CSCc1cc(n(C)n1)CSc1cc(c3ccccc3c1)OCCCc1c(C(=O)O)n(C)c3c-2c(Cl)ccc13 [AZD5991] + Cc1cc2ncnn2cc1Nc1ncc2c(n1)n(C1CCOCC1)c(=O)n2C [AZD7648] (first compound max 1 µM, 7x7, partner max 10 µM) | -0.0006 | -0.021 | -0.0256 | -0.0226 | -0.0048 | -0.0261 | 0.0085 | -0.0085 | -0.0158 | -0.0197 | 0.0192 | -0.0606 | 0.0794 | -0.0402 | -0.0369 | -0.0768 | -0.0242 | 0.231 | 0.629 | 0.675
CCN(CCO)CCCOc1ccc2c(Nc3cc(CC(=O)Nc4cccc(F)c4)[nH]n3)ncnc2c1 [AZD2811] + C[C@@H]1COCCN1C2=NC(=NC(=C2)C3(CC3)[S@](=N)(=O)C)C4=C5C=CNC5=NC=C4 [AZD6738] (first compound max 1 µM, 7x7, partner max 10 µM) | -0.0598 | -0.056 | -0.0375 | -0.0264 | -0.0456 | -0.0273 | 0.0151 | -0.0075 | -0.0585 | -0.0802 | 0.0028 | -0.117 | -0.0562 | -0.0309 | -0.094 | -0.0386 | -0.0649 | 0.447 | 0.963 | 0.658
CC1(C)CCC(CN2CCN(c3ccc(C(=O)NS(=O)(=O)c4ccc(NCC5CCOCC5)c([N+](=O)[O-])c4)c(Oc4cnc5[nH]ccc5c4)c3)CC2)=C(c2ccc(Cl)cc2)C1 [Venetoclax] + COc1cc(Nc2ncc3c(n2)-c2ccc(Cl)cc2C(c2c(F)cccc2OC)=NC3)ccc1C(=O)O [Alisertib] (first compound max 1 µM, 7x7, partner max 10 µM) | 0.11 | -0.0359 | 0.0087 | -0.0469 | -0.0547 | -0.0542 | 0.078 | 0.0148 | 0.0861 | 0.117 | 0.125 | -0.0125 | -0.006 | 0.0901 | -0.0296 | 0.0176 | -0.0234 | 0.226 | 0.866 | 0.631
CN(CCO)CC[C@H](CSc1ccccc1)Nc1ccc(S(=O)(=O)NC(=O)c2ccc(N3CCC([C@@H](O)c4ccccc4-c4ccc(Cl)cc4)CC3)cc2)cc1S(=O)(=O)C(F)(F)F [AZD4320] + Cn1cnc2c(F)c(Nc3ccc(Br)cc3Cl)c(C(=O)NOCCO)cc21 [Selumetinib] (first compound max 1 µM, 7x7, partner max 3 µM) | 0.121 | 0.0028 | -0.0965 | 0.0652 | -0.072 | -0.0025 | 0.0799 | 0.0816 | 0.0229 | 0.0308 | 0.0615 | -0.0624 | 0.0188 | 0.0154 | -0.0231 | -0.0228 | 0.0815 | 0.379 | 1 | 0.57
CCN(CCO)CCCOc1ccc2c(Nc3cc(CC(=O)Nc4cccc(F)c4)[nH]n3)ncnc2c1 [AZD2811] + C=CCn1c(=O)c2cnc(Nc3ccc(N4CCN(C)CC4)cc3)nc2n1-c1cccc(C(C)(C)O)n1 [AZD1775] (first compound max 1 µM, partner max 1 µM) | -0.0099 | -0.0522 | 0.025 | 0.0064 | 0.0196 | 0.0441 | 0.0048 | 0.0166 | -0.0205 | -0.0433 | 0.0747 | -0.0847 | 0.0278 | -0.0559 | -0.015 | -0.01 | -0.032 | 0.449 | 0.991 | 0.416
COc1cccc(OCCCN)c1-c1cc(Nc2cnc(C#N)cn2)n[nH]1 [Prexasertib] + C[C@@H]1COCCN1C2=NC(=NC(=C2)C3(CC3)[S@](=N)(=O)C)C4=C5C=CNC5=NC=C4 [AZD6738] (first compound max 1 µM, 7x7, partner max 10 µM) | -0.0483 | -0.0092 | -0.0089 | 0.0439 | -0.0131 | 0.0072 | -0.0953 | 0.002 | -0.0136 | 0.0001 | -0.0683 | 0.0155 | -0.0472 | -0.0469 | -0.0094 | 0 | 0.0005 | 0.633 | 0.981 | 0.757
CN(CCO)CC[C@H](CSc1ccccc1)Nc1ccc(S(=O)(=O)NC(=O)c2ccc(N3CCC([C@@H](O)c4ccccc4-c4ccc(Cl)cc4)CC3)cc2)cc1S(=O)(=O)C(F)(F)F [AZD4320] + C1CN(CCC1(C(=O)N[C@@H](CCO)C2=CC=C(C=C2)Cl)N)C3=NC=NC4=C3C=CN4 [Capivasertib] (first compound max 1 µM, 7x7, partner max 3 µM) | 0.0065 | -0.064 | -0.0794 | -0.0888 | -0.0226 | -0.0436 | -0.0076 | -0.0371 | -0.0037 | -0.0031 | -0.0203 | -0.0838 | -0.0109 | -0.0462 | -0.0633 | -0.0338 | -0.0405 | 0.0788 | 0.955 | 0.362
COc1cccc(OCCCN)c1-c1cc(Nc2cnc(C#N)cn2)n[nH]1 [Prexasertib] + O=C(c1cc(Cc2n[nH]c(=O)c3ccccc23)ccc1F)N1CCN(C(=O)C2CC2)CC1 [Olaparib] (first compound max 1 µM, 7x7, partner max 10 µM) | -0.157 | -0.0159 | 0.0164 | -0.0456 | -0.124 | 0.0261 | -0.0683 | 0.0013 | -0.0481 | -0.0411 | -0.0022 | -0.0325 | 0.0082 | -0.0442 | -0.0041 | -0.0011 | -0.0242 | 0.682 | 0.981 | 0.583
Cc1c2c(nn1C)CSCc1cc(n(C)n1)CSc1cc(c3ccccc3c1)OCCCc1c(C(=O)O)n(C)c3c-2c(Cl)ccc13 [AZD5991] + C[C@@H]1COCCN1C2=NC(=NC(=C2)C3(CC3)[S@](=N)(=O)C)C4=C5C=CNC5=NC=C4 [AZD6738] (first compound max 1 µM, 7x7, partner max 10 µM) | 0.0555 | 0.0034 | 0.0041 | 0.0255 | -0.0344 | 0.0389 | 0.102 | 0.0186 | -0.0205 | 0.0343 | 0.0751 | 0.0188 | 0.055 | -0.0164 | 0.0148 | 0.0026 | 0.0278 | 0.518 | 0.97 | 0.811
CCc1c2c(nc3ccc(O)cc13)-c1cc3c(c(=O)n1C2)COC(=O)[C@]3(O)CC [SN-38] + CN(C)CCCOc1ccc(-c2ccc3ncc4c(c3c2)n(C2CCOCC2)c(=O)n4C)cn1 [AZD0156] (first compound max 0.3 µM, 7x7, partner max 1 µM) | -0.0636 | 0.0182 | 0.0132 | -0.0369 | -0.0785 | 0.0541 | -0.0498 | 0.085 | -0.0384 | -0.0476 | -0.0226 | -0.0202 | -0.0003 | -0.0032 | -0.0188 | -0.0165 | 0.0023 | 0.523 | 1 | 0.416
